The test deals with Wnt activity. The experiment in a line: Wnt activity reporter assay (SP5 promoter firefly luciferase in SW480 cells). The format is cell-based. The following applies: Homo sapiens; SW480 cells bearing SP5 promoter luciferase reporter; 24 h after compound addition; read-out: Wnt inhibition. An excerpt: The above synthesized compounds were screened using the assay procedure for Wnt activity described below.
Reporter cell lines can be generated by stably transducing cells of cancer cell lines (e.g., colon cancer) with a lentiviral construct that include a wnt-responsive promoter driving expression of the firefly luciferase gene.
Lentiviral constructs can be made in which the SP5 promoter, a promoter having eight TCF/LEF binding sites derived from the SP5 promoter, is linked upstream of the firefly luciferase gene. The lentiviral constructs can also include a hygromycin resistance gene as a selectable marker. The SP5 promoter construct can be used to transduce SW480 cells, a colon cancer cell line having a mutated APC gene that generates a truncated APC protein, leading to de-regulated accumulation of β-catenin.
Cultured SW480 cells bearing a reporter construct can be distributed at approximately 10,000 cells per well into 384 well multiwell plates. Compounds from a small molecule compound library can then be added to the wells in half-log dilutions using a three micromolar top concentration. A series of control wells for each cell type receive only buffer and compound solvent. Twenty-four hours after the addition of compound, reporter activity for luciferases can be assayed, for example, by addition of the BrightGlo luminescence reagent (Promega) and the Victor3 plate reader (Perkin Elmer). Readings can be normalized to DMSO only treated cells, and normalized activities can then be used in the IC50 calculations.
As for `O=C(Nc1cncc(-c2ccc3[nH]nc(-c4nc5c(-c6ccoc6)cncc5[nH]4)c3c2)c1)C1CCCCC1` [Compound 333, N-(5-(3-(7-(Furan-3-yl)-3H-imidazo[4,5-c]pyridin-2-yl)-1H-indazol-5-yl)pyridin-3-yl)cyclohexanecarboxamide], the IC50 was 0.026 µM.

For the molecule `Fc1cccc(-c2cncc3[nH]c(-c4n[nH]c5ccc(-c6cncc(CN7CCC(F)(F)C7)c6)cc45)nc23)c1` [Compound 336, 2-(5-(5-((3,3-Difluoropyrrolidin-1-yl)methyl)pyridin-3-yl)-1H-indazol-3-yl)-7-(3-fluorophenyl)-3H-imidazo[4,5-c]pyridine], the IC50 was 0.055 µM.

In the case of `Cc1ccncc1-c1ccc2[nH]nc(-c3nc4c(-c5ccncc5)cncc4[nH]3)c2c1` [Compound 154, 2-(5-(4-Methylpyridin-3-yl)-1H-indazol-3-yl)-7-(pyridin-4-yl)-3H-imidazo[4,5-c]pyridine], the IC50 was determined as 0.373 µM.

On to `CN(C)c1cncc(-c2ccc3[nH]nc(-c4nc5c(-c6ccsc6)cncc5[nH]4)c3c2)c1` [Compound 295, N,N-Dimethyl-5-(3-(7-(thiophen-3-yl)-3H-imidazo[4,5-c]pyridin-2-yl)-1H-indazol-5-yl)pyridin-3-amine], for which the IC50 came out at 0.003 µM.

With `Nc1cncc(-c2ccc3[nH]nc(-c4nc5c(-c6ccc(F)cc6)cncc5[nH]4)c3c2)c1` [Compound 97, 5-(3-(7-(4-Fluorophenyl)-3H-imidazo[4,5-c]pyridin-2-yl)-1H-indazol-5-yl)pyridin-3-amine], the IC50 is 0.001 µM.

Consider `O=C(Nc1cncc(-c2ccc3[nH]nc(-c4nc5ccncc5[nH]4)c3c2)c1)c1ccccc1` [Compound 275, N-(5-(3-(3H-Imidazo[4,5-c]pyridin-2-yl)-1H-indazol-5-yl)pyridin-3-yl)benzamide], for which the IC50 is 0.141 µM.

In the case of `CN1CCN(c2cncc3[nH]c(-c4n[nH]c5ccc(-c6cncc(N7CCOCC7)c6)cc45)nc23)CC1` [Compound 5, 4-(5-(3-(7-(4-methylpiperazin-1-yl)-3H-imidazo[4,5-c]pyridin-2-yl)-1H-indazol-5-yl)pyridin-3-yl)morpholine], the IC50 was 0.067 to 0.098 µM.

Consider `CN(C)Cc1cncc(-c2ccc3[nH]nc(-c4nc5c(-c6cncc(F)c6)cncc5[nH]4)c3c2)c1` [Compound 16, 1-(5-(3-(7-(5-fluoropyridin-3-yl)-3H-imidazo[4,5-c]pyridin-2-yl)-1H-indazol-5-yl)pyridin-3-yl)-N,N-dimethylmethanamine], for which the IC50 lay within 0.164 to 0.2 µM.

On to `c1cc(-c2cncc3[nH]c(-c4n[nH]c5ccc(-c6cncc(CN7CCCC7)c6)cc45)nc23)ccn1` [Compound 163, 7-(Pyridin-4-yl)-2-(5-(5-(pyrrolidin-1-ylmethyl)pyridin-3-yl)-1H-indazol-3-yl)-3H-imidazo[4,5-c]pyridine], for which the IC50 amounted to 0.296 µM.

Take `Cc1ccncc1-c1ccc2[nH]nc(-c3nc4c(-c5ccc(F)cc5)cncc4[nH]3)c2c1` [Compound 99, 7-(4-Fluorophenyl)-2-(5-(4-methylpyridin-3-yl)-1H-indazol-3-yl)-3H-imidazo[4,5-c]pyridine]: the IC50 is > 5 µM.

As to `CCC(=O)Nc1cncc(-c2ccc3[nH]nc(-c4nc5c(-c6cccc(F)c6)cncc5[nH]4)c3c2)c1` [Compound 24, N-(5-(3-(7-(3-Fluorophenyl)-3H-imidazo[4,5-c]pyridin-2-yl)-1H-indazol-5-yl)pyridin-3-yl)propionamide], the IC50 turned out to be 0.066 µM.

As to `CC(C)(C)CC(=O)Nc1cncc(-c2ccc3[nH]nc(-c4nc5c(-c6cccc(F)c6)cncc5[nH]4)c3c2)c1` [Compound 90, N-(5-(3-(7-(3-Fluorophenyl)-3H-imidazo[4,5-c]pyridin-2-yl)-1H-indazol-5-yl)pyridin-3-yl)-3,3-dimethylbutanamide], the IC50 turned out to be 0.012 µM.

With `O=C(Cc1ccccc1)Nc1cncc(-c2ccc3[nH]nc(-c4nc5c(-c6cccc(F)c6)cncc5[nH]4)c3c2)c1` [Compound 86, N-(5-(3-(7-(3-Fluorophenyl)-3H-imidazo[4,5-c]pyridin-2-yl)-1H-indazol-5-yl)pyridin-3-yl)-2-phenylacetamide], the IC50 turned out to be 0.023 µM.

On to `FC1(F)CCN(Cc2cncc(-c3ccc4[nH]nc(-c5nc6c(N7CCCCC7)cncc6[nH]5)c4c3)c2)C1` [Compound 342, 2-(5-(5-((3,3-Difluoropyrrolidin-1-yl)methyl)pyridin-3-yl)-1H-indazol-3-yl)-7-(piperidin-1-yl)-3H-imidazo[4,5-c]pyridine], for which the IC50 came out at 0.02 µM.

Turning to `CC(C)(C)C(=O)Nc1cncc(-c2ccc3[nH]nc(-c4nc5c(-c6ccc(F)cc6)cncc5[nH]4)c3c2)c1` [Compound 102, N-(5-(3-(7-(4-Fluorophenyl)-3H-imidazo[4,5-c]pyridin-2-yl)-1H-indazol-5-yl)pyridin-3-yl)pivalamide], the IC50 was found to be 0.004 µM.

Consider `CCCCC(=O)Nc1cncc(-c2ccc3[nH]nc(-c4nc5c(-c6ccoc6)cncc5[nH]4)c3c2)c1` [Compound 329, N-(5-(3-(7-(Furan-3-yl)-3H-imidazo[4,5-c]pyridin-2-yl)-1H-indazol-5-yl)pyridin-3-yl)pentanamide], for which the IC50 is 0.004 µM.

With `FC1(F)CCN(Cc2cncc(-c3ccc4[nH]nc(-c5nc6c(-c7cccnc7)cncc6[nH]5)c4c3)c2)C1` [Compound 339, 2-(5-(5-((3,3-Difluoropyrrolidin-1-yl)methyl)pyridin-3-yl)-1H-indazol-3-yl)-7-(pyridin-3-yl)-3H-imidazo[4,5-c]pyridine], the IC50 came out at 0.039 µM.

As for `c1cncc(-c2ccc3[nH]nc(-c4nc5c(-c6ccoc6)cncc5[nH]4)c3c2)c1` [Compound 315, 7-(Furan-3-yl)-2-(5-(pyridin-3-yl)-1H-indazol-3-yl)-3H-imidazo[4,5-c]pyridine], the IC50 was 0.022 µM.

`CC(C)(C)CC(=O)Nc1cncc(-c2ccc3[nH]nc(-c4nc5c(-c6ccsc6)cncc5[nH]4)c3c2)c1` [Compound 304, 3,3-Dimethyl-N-(5-(3-(7-(thiophen-3-yl)-3H-imidazo[4,5-c]pyridin-2-yl)-1H-indazol-5-yl)pyridin-3-yl)butanamide]: the IC50 is 0.003 µM.

`CN1CCN(c2cncc3[nH]c(-c4n[nH]c5ccc(-c6cccnc6)cc45)nc23)CC1` [Compound 4, 7-(4-methylpiperazin-1-yl)-2-(5-(pyridin-3-yl)-1H-indazol-3-yl)-3H-imidazo[4,5-c]pyridine]: the IC50 lay within 0.013 to 0.04 µM.

For the molecule `Fc1cccc(-c2cncc3[nH]c(-c4n[nH]c5ccc(-c6cccnc6)cc45)nc23)c1` [Compound 15, 7-(3-fluorophenyl)-2-(5-(pyridin-3-yl)-1H-indazol-3-yl)-3H-imidazo[4,5-c]pyridine], the IC50 lay within 0.01 to 0.025 µM.

In the case of `c1ncc(-c2ccc3[nH]nc(-c4nc5c(N6CCCCC6)cncc5[nH]4)c3c2)cc1CN1CCCC1` [Compound 211, 7-(Piperidin-1-yl)-2-(5-(5-(pyrrolidin-1-ylmethyl)pyridin-3-yl)-1H-indazol-3-yl)-3H-imidazo[4,5-c]pyridine], the IC50 is 0.42 µM.

Consider `Cc1ccncc1-c1ccc2[nH]nc(-c3nc4c(-c5ccsc5)cncc4[nH]3)c2c1` [Compound 293, 2-(5-(4-Methylpyridin-3-yl)-1H-indazol-3-yl)-7-(thiophen-3-yl)-3H-imidazo[4,5-c]pyridine], for which the IC50 is 0.191 µM.

On to `O=C(Cc1ccccc1)Nc1cncc(-c2ccc3[nH]nc(-c4nc5c(-c6ccoc6)cncc5[nH]4)c3c2)c1` [Compound 321, N-(5-(3-(7-(Furan-3-yl)-3H-imidazo[4,5-c]pyridin-2-yl)-1H-indazol-5-yl)pyridin-3-yl)-2-phenylacetamide], for which the IC50 came to 0.033 µM.

Consider `CC(C)CC(=O)Nc1cncc(-c2ccc3[nH]nc(-c4nc5c(-c6cccc(F)c6)cncc5[nH]4)c3c2)c1` [Compound 10, N-(5-(3-(7-(3-fluorophenyl)-3H-imidazo[4,5-c]pyridin-2-yl)-1H-indazol-5-yl)pyridin-3-yl)-3-methylbutanamide], for which the IC50 lay within 0.0034 to 0.009 µM.

Regarding `O=C(Cc1ccccc1)Nc1cncc(-c2ccc3[nH]nc(-c4nc5ccncc5[nH]4)c3c2)c1` [Compound 274, N-(5-(3-(3H-Imidazo[4,5-c]pyridin-2-yl)-1H-indazol-5-yl)pyridin-3-yl)-2-phenylacetamide], the IC50 is > 10 µM.

As to `CCC(=O)Nc1cncc(-c2ccc3[nH]nc(-c4nc5c(-c6ccsc6)cncc5[nH]4)c3c2)c1` [Compound 289, N-(5-(3-(7-(Thiophen-3-yl)-3H-imidazo[4,5-c]pyridin-2-yl)-1H-indazol-5-yl)pyridin-3-yl)propionamide], the IC50 worked out at 0.002 µM.

As to `O=C(Nc1cncc(-c2ccc3[nH]nc(-c4nc5c(-c6ccoc6)cncc5[nH]4)c3c2)c1)C1CC1` [Compound 330, N-(5-(3-(7-(Furan-3-yl)-3H-imidazo[4,5-c]pyridin-2-yl)-1H-indazol-5-yl)pyridin-3-yl)cyclopropanecarboxamide], the IC50 was found to be 0.739 µM.

On to `CN(C)Cc1cncc(-c2ccc3[nH]nc(-c4nc5c(N6CCN(C)CC6)cncc5[nH]4)c3c2)c1` [Compound 3, N,N-dimethyl-1-(5-(3-(7-(4-methylpiperazin-1-yl)-3H-imidazo[4,5-c]pyridin-2-yl)-1H-indazol-5-yl)pyridin-3-yl)methanamine], for which the IC50 fell in the range of 0.083 to 0.179 µM.

In the case of `FC1(F)CCN(Cc2cncc(-c3ccc4[nH]nc(-c5nc6c(-c7ccsc7)cncc6[nH]5)c4c3)c2)C1` [Compound 346, 2-(5-(5-((3,3-Difluoropyrrolidin-1-yl)methyl)pyridin-3-yl)-1H-indazol-3-yl)-7-(thiophen-3-yl)-3H-imidazo[4,5-c]pyridine], the IC50 is 0.002 µM.

(Values after patent publication US10407425B2, “Indazole inhibitors of the Wnt signal pathway and therapeutic uses thereof” (Samumed, LLC, priority 2012, dated 2019).)
